Measurements taken from ChEMBL document CHEMBL1201862, “PubChem BioAssay data set” (2004).
Blank lines part the entries; values can stand above or below the compound they belong to. Active and inactive are the calls of the source.

Columns and labels:
[1] = target: T1, DNA repair and recombination protein RAD54-like (Homo sapiens, UniProt Q92698); test: RAD54 Holliday junction migration blockers – biochemical, fluorescence, cherry-picked samples, dose series, confirmation (AID 651657); type: functional
T1 sequence (Q92698 whole entry): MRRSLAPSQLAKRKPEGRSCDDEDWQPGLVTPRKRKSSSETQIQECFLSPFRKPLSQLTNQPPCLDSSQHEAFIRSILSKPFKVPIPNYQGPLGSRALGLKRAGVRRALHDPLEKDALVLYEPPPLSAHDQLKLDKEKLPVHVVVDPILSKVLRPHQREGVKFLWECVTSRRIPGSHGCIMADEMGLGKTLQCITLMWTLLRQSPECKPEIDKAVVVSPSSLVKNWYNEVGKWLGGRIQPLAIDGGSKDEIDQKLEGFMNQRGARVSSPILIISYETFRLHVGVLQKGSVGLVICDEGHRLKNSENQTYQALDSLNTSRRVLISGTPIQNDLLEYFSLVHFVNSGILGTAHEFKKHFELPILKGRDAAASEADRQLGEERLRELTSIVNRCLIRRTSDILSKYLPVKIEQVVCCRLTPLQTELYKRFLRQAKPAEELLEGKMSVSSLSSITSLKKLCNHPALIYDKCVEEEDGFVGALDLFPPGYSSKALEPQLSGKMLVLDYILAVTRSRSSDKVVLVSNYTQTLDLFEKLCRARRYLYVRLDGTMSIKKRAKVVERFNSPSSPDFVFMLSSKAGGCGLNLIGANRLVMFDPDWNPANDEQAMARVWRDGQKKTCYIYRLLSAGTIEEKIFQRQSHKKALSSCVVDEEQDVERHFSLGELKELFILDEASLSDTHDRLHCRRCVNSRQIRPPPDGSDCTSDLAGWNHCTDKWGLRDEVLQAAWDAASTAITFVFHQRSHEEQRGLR

[2] = viability loss in THP-1 monocytes – THP-1 cells, cytotoxicity control for Vif-APOBEC3G degradation inhibitor project, dose response (AID 1117359); type: functional; settings: THP-1
Leucine aminopeptidase = target: T2, Leucine aminopeptidase (Plasmodium falciparum 3D7, UniProt Q8IL11); test: P. falciparum M17LAP inhibitors, primary screen, biochemical, fluorogenic H-Leu-NHMec substrate, 1536-well (AID 1619); type: functional
T2 sequence (Q8IL11 whole entry): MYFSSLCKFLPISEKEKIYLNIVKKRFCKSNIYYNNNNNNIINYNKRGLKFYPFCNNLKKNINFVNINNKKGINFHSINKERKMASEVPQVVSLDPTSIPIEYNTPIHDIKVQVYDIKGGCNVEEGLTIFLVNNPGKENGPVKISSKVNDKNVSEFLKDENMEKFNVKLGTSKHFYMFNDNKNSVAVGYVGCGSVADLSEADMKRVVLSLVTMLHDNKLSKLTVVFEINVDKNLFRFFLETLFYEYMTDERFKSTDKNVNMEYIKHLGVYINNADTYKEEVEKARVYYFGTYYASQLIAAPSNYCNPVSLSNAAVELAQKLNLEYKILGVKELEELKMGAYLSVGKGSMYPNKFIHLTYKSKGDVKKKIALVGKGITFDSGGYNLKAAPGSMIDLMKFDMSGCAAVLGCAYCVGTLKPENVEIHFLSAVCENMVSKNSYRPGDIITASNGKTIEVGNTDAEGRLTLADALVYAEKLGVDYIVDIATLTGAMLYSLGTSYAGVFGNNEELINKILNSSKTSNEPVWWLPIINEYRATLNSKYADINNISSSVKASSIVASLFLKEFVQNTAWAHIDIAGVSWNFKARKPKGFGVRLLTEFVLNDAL

[3] = target: T3, RNA-binding protein pos-1 (Caenorhabditis elegans, UniProt G5EF15); test: disruptors of C. elegans POS-1 RNA interaction – biochemical, fluorescence polarization, dose response (AID 1964);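 also: purified POS-1 fused to maltose binding protein made in E. coli; potency of compounds blocking POS-1 binding to fluorescent RNA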
T3 sequence (G5EF15 whole entry): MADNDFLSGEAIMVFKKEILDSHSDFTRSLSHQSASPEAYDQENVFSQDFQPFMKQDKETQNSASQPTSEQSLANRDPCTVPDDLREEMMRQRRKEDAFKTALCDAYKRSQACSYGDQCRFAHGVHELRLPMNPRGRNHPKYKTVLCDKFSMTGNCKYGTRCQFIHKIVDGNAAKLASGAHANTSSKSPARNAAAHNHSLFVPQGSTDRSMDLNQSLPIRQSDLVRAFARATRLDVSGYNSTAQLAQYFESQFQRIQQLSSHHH

[4] = target: T4, Zinc finger protein mex-5 (Caenorhabditis elegans, UniProt Q9XUB2); test: potency of MEX-5 RNA-binding blockers – biochemical, C. elegans, fluorescence polarization, dose response (AID 1960)
T4 sequence (Q9XUB2 whole entry): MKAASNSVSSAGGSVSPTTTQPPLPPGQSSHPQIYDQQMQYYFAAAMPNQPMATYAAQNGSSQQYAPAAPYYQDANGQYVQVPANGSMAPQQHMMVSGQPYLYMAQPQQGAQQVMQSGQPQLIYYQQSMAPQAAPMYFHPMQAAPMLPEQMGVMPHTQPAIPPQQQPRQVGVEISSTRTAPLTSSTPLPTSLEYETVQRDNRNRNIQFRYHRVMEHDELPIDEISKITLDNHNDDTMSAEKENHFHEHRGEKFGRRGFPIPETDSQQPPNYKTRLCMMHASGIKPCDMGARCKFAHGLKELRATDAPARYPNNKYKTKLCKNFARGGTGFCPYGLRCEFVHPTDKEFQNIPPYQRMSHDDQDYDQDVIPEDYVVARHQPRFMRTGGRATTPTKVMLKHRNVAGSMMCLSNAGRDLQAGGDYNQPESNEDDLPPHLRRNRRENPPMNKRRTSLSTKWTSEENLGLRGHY

[5] = target: T5, Polyadenylate-binding protein 1 (Homo sapiens, UniProt P11940); test: MLLE binding blockers, Cy5 peptide tracer – biochemical, fluorescence polarization, Cy5-PAM2 peptide, secondary, miRNA deadenylation inhibitor project, dose response (AID 602260); type: functional; settings: read-out: IC50_Mean
T5 sequence (P11940 whole entry, the tested form may be a part): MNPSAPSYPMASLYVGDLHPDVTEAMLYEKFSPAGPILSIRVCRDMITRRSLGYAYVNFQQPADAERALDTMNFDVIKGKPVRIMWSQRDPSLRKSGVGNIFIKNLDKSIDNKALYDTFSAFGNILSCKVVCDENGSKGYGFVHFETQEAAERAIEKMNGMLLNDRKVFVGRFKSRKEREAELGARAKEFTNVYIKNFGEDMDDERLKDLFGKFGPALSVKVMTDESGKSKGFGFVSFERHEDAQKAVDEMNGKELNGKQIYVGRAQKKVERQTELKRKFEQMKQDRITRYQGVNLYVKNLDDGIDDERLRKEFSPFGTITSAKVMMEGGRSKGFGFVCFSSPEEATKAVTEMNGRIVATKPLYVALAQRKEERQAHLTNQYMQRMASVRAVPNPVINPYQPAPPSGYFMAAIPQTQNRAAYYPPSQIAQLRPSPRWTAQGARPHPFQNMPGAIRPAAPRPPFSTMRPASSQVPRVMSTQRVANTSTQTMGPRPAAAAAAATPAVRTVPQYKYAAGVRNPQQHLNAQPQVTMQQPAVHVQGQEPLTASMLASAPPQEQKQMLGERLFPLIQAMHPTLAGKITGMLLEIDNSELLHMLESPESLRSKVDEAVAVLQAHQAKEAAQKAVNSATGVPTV

[6] = target: T5, Polyadenylate-binding protein 1; test: MLLE domain peptide-binding blockers, IC50 – biochemical, fluorescence polarization, FITC-PAM2 peptide, dose response (AID 602259); type: functional; settings: read-out: IC50_Mean
[7] = blockers of HIV-1 envelope-mediated cell-cell fusion – cherry-pick, dose response (AID 652057); type: functional, cell-based
[8] = HIV-1 AD8 envelope cell-cell fusion blockers – cherry-pick, dose response (AID 652062); type: functional, cell-based;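 also: luciferase signal from cell-cell fusion driven by HIV-1 clade B AD8 Env; potency is for inhibitors of fusion seen as a drop in luminescence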
Large T antigen = Large T antigen (Simian virus 40, UniProt P03070); type: functional, Betapolyomavirus macacae;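 also: Confirmatory-stage PubChem screen for compounds that inhibit SV40 T antigen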
Chain of Large T antigen (P03070 whole entry): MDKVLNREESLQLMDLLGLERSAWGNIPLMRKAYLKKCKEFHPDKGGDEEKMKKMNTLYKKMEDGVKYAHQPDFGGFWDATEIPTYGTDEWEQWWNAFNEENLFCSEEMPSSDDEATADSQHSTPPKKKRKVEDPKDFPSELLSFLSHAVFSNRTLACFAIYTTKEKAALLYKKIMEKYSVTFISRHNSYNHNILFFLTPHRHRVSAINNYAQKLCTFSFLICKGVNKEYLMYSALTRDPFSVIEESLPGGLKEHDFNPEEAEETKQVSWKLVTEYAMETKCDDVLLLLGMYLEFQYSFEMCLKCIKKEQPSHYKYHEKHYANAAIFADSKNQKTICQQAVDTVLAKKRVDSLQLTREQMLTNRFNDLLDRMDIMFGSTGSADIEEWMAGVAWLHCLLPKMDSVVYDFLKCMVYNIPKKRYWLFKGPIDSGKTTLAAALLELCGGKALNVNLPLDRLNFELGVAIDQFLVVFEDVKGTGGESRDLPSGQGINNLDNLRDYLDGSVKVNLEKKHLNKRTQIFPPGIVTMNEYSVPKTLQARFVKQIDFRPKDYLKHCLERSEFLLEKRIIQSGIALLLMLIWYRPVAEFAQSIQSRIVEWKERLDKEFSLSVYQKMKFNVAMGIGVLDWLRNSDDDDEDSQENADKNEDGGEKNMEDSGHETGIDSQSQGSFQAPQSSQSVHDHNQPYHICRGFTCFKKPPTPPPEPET

[9] = target: FAD-linked sulfhydryl oxidase ALR (Homo sapiens, UniProt P55789); test: ALR-catalysed DTT oxidation blockers – biochemical, H2O2 detection, luminescence, cherry-pick, dose response (AID 493248)
Chain of FAD-linked sulfhydryl oxidase ALR (P55789 whole entry): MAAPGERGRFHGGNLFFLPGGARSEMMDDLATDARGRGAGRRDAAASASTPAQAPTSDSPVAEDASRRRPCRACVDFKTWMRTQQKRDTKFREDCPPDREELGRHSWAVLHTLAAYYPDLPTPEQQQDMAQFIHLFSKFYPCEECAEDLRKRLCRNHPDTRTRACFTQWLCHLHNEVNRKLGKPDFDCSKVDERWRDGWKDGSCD

[10] = target: T6, Histone-lysine N-methyltransferase NSD2 (Homo sapiens, UniProt O96028); type: biochemical
T6 sequence (O96028 whole entry): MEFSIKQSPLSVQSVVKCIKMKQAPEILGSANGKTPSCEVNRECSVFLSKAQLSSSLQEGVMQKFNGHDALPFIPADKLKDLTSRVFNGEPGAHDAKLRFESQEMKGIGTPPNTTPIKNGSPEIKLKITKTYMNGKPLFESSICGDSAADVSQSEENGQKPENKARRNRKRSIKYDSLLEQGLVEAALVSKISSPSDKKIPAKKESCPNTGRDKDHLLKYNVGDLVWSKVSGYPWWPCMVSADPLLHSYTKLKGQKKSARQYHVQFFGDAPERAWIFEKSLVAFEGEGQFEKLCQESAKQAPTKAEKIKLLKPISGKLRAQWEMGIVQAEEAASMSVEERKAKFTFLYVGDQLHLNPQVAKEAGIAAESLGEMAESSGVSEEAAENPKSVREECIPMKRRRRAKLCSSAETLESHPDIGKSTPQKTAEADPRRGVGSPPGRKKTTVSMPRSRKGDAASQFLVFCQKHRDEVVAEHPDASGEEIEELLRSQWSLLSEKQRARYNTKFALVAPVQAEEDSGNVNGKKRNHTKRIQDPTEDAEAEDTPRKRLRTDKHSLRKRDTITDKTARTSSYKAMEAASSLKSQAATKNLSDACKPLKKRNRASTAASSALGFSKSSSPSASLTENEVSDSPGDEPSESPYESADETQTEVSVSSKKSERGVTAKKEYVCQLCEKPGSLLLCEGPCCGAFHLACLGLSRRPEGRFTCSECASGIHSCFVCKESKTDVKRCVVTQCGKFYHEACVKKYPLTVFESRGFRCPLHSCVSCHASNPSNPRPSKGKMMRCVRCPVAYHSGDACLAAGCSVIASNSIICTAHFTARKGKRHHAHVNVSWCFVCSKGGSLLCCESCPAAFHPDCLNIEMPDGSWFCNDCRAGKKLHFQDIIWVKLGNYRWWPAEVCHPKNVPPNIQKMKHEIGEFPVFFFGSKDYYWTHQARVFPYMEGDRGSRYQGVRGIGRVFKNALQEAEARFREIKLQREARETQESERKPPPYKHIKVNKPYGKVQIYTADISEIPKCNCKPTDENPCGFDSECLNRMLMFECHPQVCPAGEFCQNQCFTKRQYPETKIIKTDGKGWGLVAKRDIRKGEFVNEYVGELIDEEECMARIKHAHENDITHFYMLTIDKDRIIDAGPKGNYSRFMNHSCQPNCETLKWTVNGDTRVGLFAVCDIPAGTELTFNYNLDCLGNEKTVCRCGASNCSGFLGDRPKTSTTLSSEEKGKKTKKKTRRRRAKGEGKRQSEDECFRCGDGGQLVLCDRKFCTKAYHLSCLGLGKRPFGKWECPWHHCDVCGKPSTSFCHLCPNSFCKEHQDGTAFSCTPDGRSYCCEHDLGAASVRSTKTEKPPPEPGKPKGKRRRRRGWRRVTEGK

Compound: Cc1nn(-c2c(Cl)cc(Cl)cc2Cl)c(=O)c2ccccc12
- CC50 [2]: 30.1 µM (active)

Compound: COc1ccc([N+](=O)[O-])cc1CSc1nnc(NC(C)=O)s1
- CC50 [2]: > 40 µM (active)

Compound: C[C@H](CO)N1C[C@H](C)[C@@H](CN(C)C(=O)[C@H](Cc2ccccc2)N(C)C)OCc2ccccc2-c2c(n(C)c3ccccc23)C1=O
- AC50 [7]: 1.6 µM (active)
- AC50 [8]: 13.3 µM (active)

Compound: CCN(CC)CCC/N=C(\C)C1=C(O)c2ccccc2C1=O
- AC50 [10]: > 20 µM (inactive)

Continued, values first:

- AC50 [1]: 56.7 µM (active)
Compound: Cc1ccc2nc(O)c3cc(C(=O)NCCN4CCN(C)CC4)sc3c2c1

- IC50 (Leucine aminopeptidase): 43.9 µM (active)
- EC50 [3]: > 300 µM (not active)
- EC50 [4]: > 300 µM (not active)
- IC50 [5]: > 66 µM (inactive)
- IC50 [6]: > 66 µM (inactive)
Compound: O=C(NC(=S)NNS(=O)(=O)c1ccccc1)c1cccnc1

- IC50 (Large T antigen): 14 µM (active)
- AC50 [9]: 4.3 µM (active)
- AC50 [10]: 9.2 µM (active)
Compound: C/C(CC(=O)Nc1ccc2ccccc2c1)=N\NC(=O)c1ccc(O)c(O)c1

- IC50 (Leucine aminopeptidase): 95.3 µM (active)
Compound: COc1ccc(/C=N/N=C2\SC(CC(=O)O)C(=O)N2c2ccccc2)c(OC)c1 (stereo not given)
